Like-named read-outs stand apart in the source and are kept apart here.
How the values were obtained:
Influenza A2 /Aichi/3/68 = test: in vitro anti-myxovirus activity, influenza A2 /Aichi/3/68, G-2 cells (% inhibition of hemadsorption); type: cell-based, Influenza A2 /Aichi/3/68 (human); conditions: for inhibition at 100 µg/mL: 100 μg/ml; for inhibition at 40 µg/mL: 40 μg/ml; for inhibition at 30 µg/mL: 30 μg/ml; for inhibition at 50 µg/mL: 50 μg/ml; for inhibition at 60 µg/mL: 60 μg/ml; for inhibition at 70 µg/mL: 70 μg/ml; for inhibition at 80 µg/mL: 80 μg/ml; for inhibition at 90 µg/mL: 90 μg/ml; for inhibition at 10 µg/mL: 10 μg/ml; for inhibition at 20 µg/mL: 20 μg/ml
[1] = cytotoxicity in G-2 cells; type: cell-based; conditions: human; for CC50: 50% inhibition of cell growth, read-out: Cytotoxicity CTD50; for MNTC: maximal non-toxic concentration, read-out: Cytotoxicity CTD0
Procedure: In preparing the compounds for testing, they were handled aseptically throughout. The compounds were dissolved in a minimum amount of a suitable solvent and the final dilutions were made up to the required volume in a complete culture medium used in assay and in concentration not exceeding the predetermined maximum non-toxic levels.
The cell culture used in all primary in vitro anti-myxovirus assays was an established cell line of the human conjunctiva (G-2 cells). The cytotoxic studies of each of the compounds were performed prior to testing for antiviral activity to determine level of response of the cells to the potentially toxic action of the compounds.

[2] = toxicity of in vitro active anti-myxovirus compounds in mice; conditions: mouse, in vivo, ip, I/P
mice = test: as above; conditions: for Maximal non-toxic dose LD0, acute / Maximal non-toxic dose LD0, subacute: I/P; for toxicity compared with Amantadine or compound I: words
Influenza (swine) = test: cells; type: cell-based; conditions: for inhibition at 30 µg/mL: 30 μg/ml; for inhibition at 80 µg/mL: 80 μg/ml; for inhibition at 100 µg/mL: 100 μg/ml
[3] = Homo sapiens, 100 TCID50, read-out: % Inhibition
[4] = 50% toxic dose LD50, acute, acute
[5] = 50% toxic dose LD50, subacute, subacute

Row | SMILES | inhibition at 100 µg/mL (Influenza A2 /Aichi/3/68; [3]) [%] | CC50 [1] [µg/mL] | MNTC [1] [µg/mL] | LD50 [2, 4] [mg/kg] | LD50 [2, 5] [mg/kg] | Maximal non-toxic dose LD0, acute (mice) [mg/kg] | Maximal non-toxic dose LD0, subacute (mice) [mg/kg] | toxicity compared with Amantadine or compound I (mice) | inhibition at 40 µg/mL (Influenza A2 /Aichi/3/68; 100 TCID50) [%] | inhibition at 30 µg/mL (Influenza A2 /Aichi/3/68; Homo sapiens, 100 TCID50) [%] | inhibition at 50 µg/mL (Influenza A2 /Aichi/3/68; Homo sapiens, 100 TCID50) [%] | inhibition at 60 µg/mL (Influenza A2 /Aichi/3/68; Homo sapiens, 100 TCID50) [%] | inhibition at 70 µg/mL (Influenza A2 /Aichi/3/68; Homo sapiens, 100 TCID50) [%] | inhibition at 80 µg/mL (Influenza A2 /Aichi/3/68; Homo sapiens, 100 TCID50) [%] | inhibition at 90 µg/mL (Influenza A2 /Aichi/3/68; Homo sapiens, 100 TCID50) [%] | inhibition at 30 µg/mL (Influenza (swine)) [%] | inhibition at 40 µg/mL (Influenza (swine); 40 μg/ml) [%] | inhibition at 50 µg/mL (Influenza (swine); 50 μg/ml) [%] | inhibition at 60 µg/mL (Influenza (swine); 60 μg/ml) [%] | inhibition at 80 µg/mL (Influenza (swine)) [%] | also measured
1 | CN(C)C[C@H]1[C@H](N)[C@H]2C[C@@H]1c1ccccc12 (relative stereo) [Compound III, 1,2,3,4-tetrahydro-1,4-methanonaphthalen-exo-3-dimethylaminomethyl-endo-2-amine] | 90 | > 100 | > 100 | 750 | 500 to 750 | 500 | 250 | far less toxic than either the known antiviral agent Amantadine or compound I | – | – | – | – | – | – | – | – | – | – | – | – | inhibition at 33.3 µg/mL (Influenza A2 /Aichi/3/68; Homo sapiens, 33.3 μg/ml, 100 TCID50): 3%; inhibition at 66.7 µg/mL (Influenza A2 /Aichi/3/68; Homo sapiens, 66.7 μg/ml, 100 TCID50): 87%
2 | NC12CC3CC(CC(C3)C1)C2 [Amantadine, reference compound] | – | > 100 | > 100 | – | – | 175 | 150 | – | 0 | 0 | 0 | 0 | 33 | 27 | 67 | 0 | 10 | 67 | 83 | 100 | inhibition at 40 µg/mL (Influenza A2 /Aichi/3/68; 56.2 TCID50): 0%; inhibition at 30 µg/mL (Influenza A2 /Aichi/3/68; Homo sapiens, 56.2 TCID50): 0%; inhibition at 50 µg/mL (Influenza A2 /Aichi/3/68; Homo sapiens, 56.2 TCID50): 0%; inhibition at 60 µg/mL (Influenza A2 /Aichi/3/68; Homo sapiens, 56.2 TCID50): 53%; inhibition at 70 µg/mL (Influenza A2 /Aichi/3/68; Homo sapiens, 56.2 TCID50): 83%; inhibition at 80 µg/mL (Influenza A2 /Aichi/3/68; Homo sapiens, 56.2 TCID50): 70%; inhibition at 90 µg/mL (Influenza A2 /Aichi/3/68; Homo sapiens, 56.2 TCID50): 97%; inhibition at 100 µg/mL (Influenza A2 /Aichi/3/68; Homo sapiens, 56.2 TCID50): 87%; inhibition at 100 µg/mL (Influenza A2 /Aichi/3/68; Homo sapiens, 100 TCID50): 43%; % Inhibition (Influenza (swine); 40 μg/ml, listed as AMANTADINE HYDROCHLORIDE): 17%; % Inhibition (Influenza (swine); 50 μg/ml, listed as AMANTADINE HYDROCHLORIDE): 80%; % Inhibition (Influenza (swine); 60 μg/ml, listed as AMANTADINE HYDROCHLORIDE): 90%; inhibition at 70 µg/mL (Influenza (swine); 70 μg/ml): 97%; % Inhibition (Influenza (swine); 70 μg/ml, listed as AMANTADINE HYDROCHLORIDE): 93%; inhibition at 90 µg/mL (Influenza (swine); 90 μg/ml): 100%; inhibition at 100 µg/mL (Influenza (swine)): 100%
3 | NC1C2CCC(c3ccccc32)C1N (stereo not drawn) [Compound VII, 1,2,3,4-tetrahydro-1,4-ethanonaphthalen-exo-3-endo-2-diamine] | 83 | > 100 | > 100 | 775 to 800 | 800 | 700 | 700 | far less toxic than either the known antiviral agent Amantadine or compound I | 30 | 20 | 67 | 80 | 57 | 60 | 80 | 90 | 97 | 100 | 100 | 100 | inhibition at 40 µg/mL (Influenza A2 /Aichi/3/68; 31.6 TCID50): 87%; inhibition at 10 µg/mL (Influenza A2 /Aichi/3/68; Homo sapiens, 31.6 TCID50): 0%; inhibition at 10 µg/mL (Influenza A2 /Aichi/3/68; Homo sapiens, 100 TCID50): 0%; inhibition at 20 µg/mL (Influenza A2 /Aichi/3/68; Homo sapiens, 31.6 TCID50): 7%; inhibition at 20 µg/mL (Influenza A2 /Aichi/3/68; Homo sapiens, 100 TCID50): 0%; inhibition at 30 µg/mL (Influenza A2 /Aichi/3/68; Homo sapiens, 31.6 TCID50): 60%; inhibition at 50 µg/mL (Influenza A2 /Aichi/3/68; Homo sapiens, 31.6 TCID50): 95%; inhibition at 60 µg/mL (Influenza A2 /Aichi/3/68; Homo sapiens, 31.6 TCID50): 100%; inhibition at 70 µg/mL (Influenza A2 /Aichi/3/68; Homo sapiens, 31.6 TCID50): 100%; inhibition at 80 µg/mL (Influenza A2 /Aichi/3/68; Homo sapiens, 31.6 TCID50): 100%; inhibition at 90 µg/mL (Influenza A2 /Aichi/3/68; Homo sapiens, 31.6 TCID50): 100%; inhibition at 100 µg/mL (Influenza A2 /Aichi/3/68; Homo sapiens, 31.6 TCID50, read-out: % Inhibition): 100%; inhibition at 10 µg/mL (Influenza (swine); 10 μg/ml): 0%; inhibition at 20 µg/mL (Influenza (swine); 20 μg/ml): 56%; % Inhibition (Influenza (swine); 20 μg/ml, listed as 1,2,3,4-TETRAHYDRO-1,4-[…]-EXO-3-ENDO-2-DIAMINE.2HCl): 70%; inhibition at 100 µg/mL (Influenza (swine)): 100%

From US3932512A, “Antiviral 1,2,3,4-tetrahydro-1,-alkano naphthalenamine derivatives” (priority 1972, dated 1976)
